Laboratory results as given in US20120135923A1, “Use of Melanocortins to Treat Dyslipidemia” (IPSEN PHARMA, S.A.S., priority 2009, published 2012).
Where two headings read alike, the source gives them in different places. Bridge positions count the residues as written; N and C are the ends. Square brackets hold non-standard residues; d marks the D form. Peptide text beside a SMILES is read from it. Bip = N[C@@H](Cc1ccc(-c2ccccc2)cc1)C(=O)O; 2Nal = N[C@@H](Cc1ccc2ccccc2c1)C(=O)O; d2Nal = N[C@H](Cc1ccc2ccccc2c1)C(=O)O; Bta = N[C@@H](Cc1csc2ccccc12)C(=O)O; hArg = N=C(N)NCCCC[C@H](N)C(=O)O; Pen = CC(C)(S)[C@H](N)C(=O)O; Nle = CCCC[C@H](N)C(=O)O; GABA = NCCCC(=O)O; βAla = NCCC(=O)O

Legend:
hMC4-R [1] = target: T1, hMC4-R (Homo sapiens, UniProt P32245); assay: Radioligand binding assay, [125I]-NDP-α-MSH competition, CHO-K1 membranes
T1 construct: expressed in transfected cells; host or cells: CHO-K1
T1 sequence (P32245 whole entry): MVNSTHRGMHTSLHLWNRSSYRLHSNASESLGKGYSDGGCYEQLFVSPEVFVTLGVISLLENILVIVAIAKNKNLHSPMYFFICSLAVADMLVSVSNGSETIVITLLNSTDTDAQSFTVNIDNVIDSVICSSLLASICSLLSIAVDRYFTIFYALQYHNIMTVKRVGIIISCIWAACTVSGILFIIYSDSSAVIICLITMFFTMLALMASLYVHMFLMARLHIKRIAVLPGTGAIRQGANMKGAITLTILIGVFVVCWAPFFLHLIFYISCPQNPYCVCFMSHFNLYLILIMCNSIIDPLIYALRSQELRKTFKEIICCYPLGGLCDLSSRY

hMC5-R [2] = target: T2, hMC5-R (Homo sapiens, UniProt P33032); assay: as above
T2 construct: expressed in transfected cells; host or cells: CHO-K1
T2 sequence (P33032 whole entry): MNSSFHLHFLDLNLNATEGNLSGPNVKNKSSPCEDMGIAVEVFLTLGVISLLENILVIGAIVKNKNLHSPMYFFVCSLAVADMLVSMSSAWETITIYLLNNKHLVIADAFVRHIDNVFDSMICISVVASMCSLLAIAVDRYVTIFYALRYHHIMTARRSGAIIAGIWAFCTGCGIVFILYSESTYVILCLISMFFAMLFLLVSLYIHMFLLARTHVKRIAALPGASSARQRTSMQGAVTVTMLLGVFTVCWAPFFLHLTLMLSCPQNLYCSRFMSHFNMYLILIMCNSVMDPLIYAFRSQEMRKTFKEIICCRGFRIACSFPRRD

hMC1-R [3] = target: T3, hMC1-R (Homo sapiens, UniProt Q01726); assay: as above
T3 construct: expressed in transfected cells; host or cells: CHO-K1
T3 sequence (Q01726 whole entry): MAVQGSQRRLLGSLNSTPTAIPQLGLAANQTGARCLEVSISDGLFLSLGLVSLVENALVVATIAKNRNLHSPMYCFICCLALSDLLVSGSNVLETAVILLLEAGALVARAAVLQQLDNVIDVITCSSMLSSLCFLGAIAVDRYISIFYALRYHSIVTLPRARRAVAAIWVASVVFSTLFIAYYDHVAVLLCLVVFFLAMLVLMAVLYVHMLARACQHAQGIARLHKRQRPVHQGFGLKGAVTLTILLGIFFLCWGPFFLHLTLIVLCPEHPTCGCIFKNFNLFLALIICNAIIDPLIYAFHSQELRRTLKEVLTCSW

hMC3-R [4] = target: T4, hMC3-R (Homo sapiens, UniProt P41968); assay: as above
T4 construct: expressed in transfected cells; host or cells: CHO-K1
T4 sequence (P41968 whole entry): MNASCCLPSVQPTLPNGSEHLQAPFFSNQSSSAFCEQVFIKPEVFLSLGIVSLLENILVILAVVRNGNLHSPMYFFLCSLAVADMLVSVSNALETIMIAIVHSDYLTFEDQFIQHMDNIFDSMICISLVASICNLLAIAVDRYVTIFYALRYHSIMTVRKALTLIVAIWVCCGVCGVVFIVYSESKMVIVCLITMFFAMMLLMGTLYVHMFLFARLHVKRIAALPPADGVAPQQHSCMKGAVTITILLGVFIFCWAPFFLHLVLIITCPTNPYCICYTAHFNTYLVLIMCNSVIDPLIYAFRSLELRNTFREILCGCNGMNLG

hMC3-R [5] = target: T4, hMC3-R; assay: cyclic AMP bioassay (ECL) in CHO-K1 cells; format: cell-based
hMC4-R [6] = target: T1, hMC4-R; assay: cyclic AMP bioassay (ECL) in CHO-K1 cells; format: cell-based
hMC1-R [7] = target: T3, hMC1-R; assay: cyclic AMP bioassay (ECL) in CHO-K1 cells; format: cell-based; conditions: Table 9C/9D; read-out: EC50 hMC1-R
hMC5-R [8] = target: T2, hMC5-R; assay: cyclic AMP bioassay (ECL) in CHO-K1 cells; format: cell-based; conditions: Table 9C/9D; read-out: EC50 hMC5-R

Structure (SMILES)	Ki (hMC4-R [1]; Table 5, read-out: Ki KMC4-R) [nM]	Ki (hMC5-R [2]; Table 5, read-out: Ki hMC5-R) [nM]	Ki (hMC1-R [3]; Table 5, read-out: Ki hMC1-R) [nM]	Ki (hMC3-R [4]; Table 5, read-out: Ki hMC3-R) [nM]	also measured
CCCC[C@H](NC(C)=O)C(=O)N[C@@H]1C(=O)N[C@@H](Cc2c[nH]cn2)C(=O)N[C@H](Cc2ccccc2)C(=O)N[C@@H](CCCNC(=N)N)C(=O)N[C@@H](Cc2c[nH]c3ccccc23)C(=O)NCCCC(=O)N[C@H](C(N)=O)CSSC1(C)C [Ac-Nle-c(Pen-His-D-Phe-Arg-Trp-Gaba-Cys)-NH2] (Ac-[Nle][Pen]H[dF]RW[GABA]C-NH2; disulfide 2-8 (inferred))	5.89	2.56	0.537	86.1	
CCCC[C@H](NC(C)=O)C(=O)N[C@H]1CSSC[C@@H](C(N)=O)NC(=O)[C@H](Cc2ccc3ccccc3c2)NC(=O)[C@H](CCCNC(=N)N)NC(=O)[C@@H](Cc2ccc3ccccc3c2)NC(=O)[C@H](Cc2c[nH]cn2)NC(=O)[C@@H](C)NC1=O [Ac-Nle-c(Cys-D-Ala-His-D-2-Nal-Arg-2-Nal-Cys)-NH2] (Ac-[Nle]C[dA]H[d2Nal]R[2Nal]C-NH2; disulfide 2-8)	2.53	94.6	32.5	5.85	
C[C@@H]1C(=O)N[C@@H](Cc2cnc[nH]2)C(=O)N[C@H](Cc2ccccc2)C(=O)N[C@@H](CCCNC(=N)N)C(=O)N[C@@H](Cc2c[nH]c3ccccc23)C(=O)N[C@H](C(N)=O)CCNC(=O)CC[C@@H]2NC(=O)N1C2=O [c[Hydantoin(C(O)-(Glu-D-Ala))-His-D-Phe-Arg-Trp-Dab]-NH2]					Ki (hMC4-R [1]; Table 7, read-out: Ki hMC4): 12.7 nM; Ki (hMC5-R [2]; Table 7, read-out: Ki hMC5): 877 nM; Ki (hMC1-R [3]; Table 7, read-out: Ki hMC1): 28 nM; Ki (hMC3-R [4]; Table 7, read-out: Ki hMC3): 90.5 nM
CC(=O)N[C@H]1CSSC[C@@H](C(=O)N2CCC[C@H]2C(=O)N2CCC[C@H]2C(=O)N[C@@H](CCCCN)C(=O)N[C@@H](CC(=O)O)C(N)=O)NC(=O)[C@H](C)NC(=O)[C@H](Cc2csc3ccccc23)NC(=O)[C@H](CCCNC(=N)N)NC(=O)[C@@H](Cc2ccc3ccccc3c2)NC(=O)[C@H](Cc2c[nH]cn2)NC(=O)[C@H](CCC(=O)O)NC1=O [Ac-c(Cys-Glu-His-D-2-Nal-Arg-Bal-Ala-Cys)-Pro-Pro-Lys-Asp-NH2] (Ac-CEH[d2Nal]R[Bta]ACPPKD-NH2; disulfide 1-8)					Ki (hMC4-R [1]; Table 6, read-out: Ki hMC4-R): 0.586 nM; Ki (hMC5-R [2]; Table 6, read-out: Ki hMC5-R): 844 nM; Ki (hMC1-R [3]; Table 6, read-out: Ki hMC1-R): 163 nM; Ki (hMC3-R [4]; Table 6, read-out: Ki hMC3-R): 23 nM
C[C@@H](O)[C@H](NC(=O)[C@H]1CSSC[C@H](NC(=O)[C@H](N)Cc2ccccc2)C(=O)N[C@@H](Cc2c[nH]cn2)C(=O)N[C@H](Cc2ccccc2)C(=O)N[C@@H](CCCNC(=N)N)C(=O)N[C@@H](Cc2c[nH]c3ccccc23)C(=O)NCCCC(=O)N1)C(N)=O [D-Phe-c(Cys-His-D-Phe-Arg-Trp-Gaba-D-Cys)-Thr-NH2] (H-[dF]CH[dF]RW[GABA][dC]T-NH2; disulfide 2-8)	4.75	1260	0.42	106	
CC(=O)N[C@@H](Cc1ccccc1)C(=O)N[C@H]1CSSC[C@@H](C(N)=O)NC(=O)CCCNC(=O)[C@H](Cc2c[nH]c3ccccc23)NC(=O)[C@H](CCCNC(=N)N)NC(=O)[C@@H](Cc2ccccc2)NC(=O)[C@H](Cc2c[nH]cn2)NC1=O [Ac-Phe-c(Cys-His-D-Phe-Arg-Trp-Gaba-Cys)-NH2] (Ac-FCH[dF]RW[GABA]C-NH2; disulfide 2-8)					Ki (hMC4-R [1]; Ki KMC4-R): 2.13 nM; Ki (hMC5-R [2]; Ki hMC5-R): 0.714 nM; Ki (hMC1-R [3]; Ki hMC1-R): 0.254 nM; Ki (hMC3-R [4]; Ki hMC3-R): 18.5 nM
C[C@@H](O)[C@H](NC(=O)[C@H]1CSSC[C@H](NC(=O)[C@H](N)Cc2ccccc2)C(=O)N[C@@H](Cc2c[nH]cn2)C(=O)N[C@H](Cc2ccccc2)C(=O)N[C@@H](CCCNC(=N)N)C(=O)N[C@@H](Cc2ccc(-c3ccccc3)cc2)C(=O)NCCC(=O)N1)C(N)=O [D-Phe-c(Cys-His-D-Phe-Arg-Bip-β-Ala-D-Cys)-Thr-NH2] (H-[dF]CH[dF]R[Bip][βAla][dC]T-NH2; disulfide 2-8)	583	1130	5.8	3370	
C[C@@H](O)[C@H](NC(=O)[C@H]1CSSC[C@H](NC(=O)[C@H](N)Cc2ccccc2)C(=O)N[C@@H](Cc2c[nH]cn2)C(=O)N[C@H](Cc2ccccc2)C(=O)N[C@@H](CCCCNC(=N)N)C(=O)N[C@@H](Cc2c[nH]c3ccccc23)C(=O)NCCC(=O)N1)C(N)=O [D-Phe-c(Cys-His-D-Phe-hArg-Trp-β-Ala-D-Cys)-Thr-NH2] (H-[dF]CH[dF][hArg]W[βAla][dC]T-NH2; disulfide 2-8)	10.3	521	0.442	123	
C[C@@H]1C(=O)N[C@@H](Cc2cnc[nH]2)C(=O)N[C@H](Cc2ccccc2)C(=O)N[C@@H](CCCNC(=N)N)C(=O)N[C@@H](Cc2c[nH]c3ccccc23)C(=O)N[C@H](C(N)=O)CNC(=O)C[C@@H]2NC(=O)N1C2=O [c[Hydantoin(C(O)-(Asp-D-Ala))-His-D-Phe-Arg-Trp-Dap]-NH2]					Ki (hMC4-R [1]; Table 7, read-out: Ki hMC4): 19.9 nM; Ki (hMC1-R [3]; Table 7, read-out: Ki hMC1): 66.6 nM; EC50 (hMC3-R [5]; Table 11, read-out: EC50 hMC3): 49.3 nM; EC50 (hMC4-R [6]; Table 11, read-out: EC50 hMC4): 2.12 nM
C[C@@H](O)[C@H](NC(=O)[C@H]1CSSC[C@H](NC(=O)[C@H](N)Cc2ccccc2)C(=O)N[C@@H](Cc2c[nH]cn2)C(=O)N[C@H](Cc2ccccc2)C(=O)N[C@@H](CCCCNC(=N)N)C(=O)N[C@@H](Cc2ccc(-c3ccccc3)cc2)C(=O)NCCC(=O)N1)C(N)=O [D-Phe-c(Cys-His-D-Phe-hArg-Bip-β-Ala-D-Cys)-Thr-NH2] (H-[dF]CH[dF][hArg][Bip][βAla][dC]T-NH2; disulfide 2-8 (inferred))	172	1220	1.68	1260	
CCCC[C@H](NC(C)=O)C(=O)N[C@H]1CSSC[C@@H](C(=O)O)NC(=O)[C@H](Cc2c[nH]c3ccccc23)NC(=O)[C@H](CCCNC(=N)N)NC(=O)[C@@H](Cc2ccccc2)NC(=O)[C@H](Cc2c[nH]cn2)NC(=O)[C@@H](C)NC1=O [Ac-Nle-c(Cys-D-Ala-His-D-Phe-Arg-Trp-Cys)-OH]					Ki (hMC4-R [1]; Ki KMC4-R, Table 5): 15.6 nM; Ki (hMC5-R [2]; Ki hMC5-R, Table 5): 114 nM; Ki (hMC1-R [3]; Ki hMC1-R, Table 5): 30.7 nM; Ki (hMC3-R [4]; Ki hMC3-R, Table 5): 152 nM
CCCC[C@H](NC(C)=O)C(=O)N[C@H]1CSSC[C@@H](C(N)=O)NC(=O)[C@@H](C)NC(=O)[C@H](Cc2c[nH]c3ccccc23)NC(=O)[C@H](CCCNC(=N)N)NC(=O)[C@@H](Cc2ccccc2)NC(=O)[C@H](Cc2c[nH]cn2)NC(=O)[C@@H](C)NC1=O [Ac-Nle-c(Cys-D-Ala-His-D-Phe-Arg-Trp-D-Ala-Cys)-NH2] (Ac-[Nle]C[dA]H[dF]RW[dA]C-NH2; disulfide 2-9)	48	4940	3.93	876	
CC(=O)N[C@@H](CCc1ccccc1)C(=O)N[C@H]1CC(=O)NCCCC[C@@H](C(N)=O)NC(=O)CCCNC(=O)[C@H](Cc2c[nH]c3ccccc23)NC(=O)[C@H](CCCNC(=N)N)NC(=O)[C@@H](Cc2ccc3ccccc3c2)NC(=O)[C@H](Cc2c[nH]cn2)NC1=O [Ac-hPhe-c(Asp-His-D-2-Nal-Arg-Trp-Gaba-Lys)-NH2]	0.931		0.461	2.45	Kb (hMC3-R [5]; Table 9C/9D, antagonist potency by Schild analysis, read-out: Kb hMC3-R): 9.32 nM; EC50 (hMC1-R [7]): 0.413 nM; EC50 (hMC5-R [8]): 0.307 nM; Kb (hMC4-R [6]; Table 9C/9D, antagonist potency by Schild analysis, read-out: Kb MC4-R): 0.824 nM
CC[C@H](C)[C@@H]1NC(=O)N([C@H]2CSSC[C@@H](C(N)=O)NC(=O)[C@H](Cc3c[nH]c4ccccc34)NC(=O)[C@H](CCCNC(=N)N)NC(=O)[C@@H](Cc3ccccc3)NC(=O)[C@H](Cc3cnc[nH]3)NC(=O)[C@@H](C)NC2=O)C1=O [c[Hydantoin(C(O)-(Ile-Cys))-D-Ala-His-D-Phe-Arg-Trp-Cys]-NH2]					Ki (hMC4-R [1]; Ki hMC4, Table 7): 41.6 nM; Ki (hMC1-R [3]; Ki hMC1, Table 7): 53.4 nM; EC50 (hMC3-R [5]): 8.51 nM; EC50 (hMC4-R [6]): 1.85 nM
